These results are taken from patent US11141490B2, “Antibody-drug conjugates based on gold compounds” (Research Foundation of the City University of New York, priority 2018, dated 2021).

In general, EC50 refers to the concentration at which the effect is half-maximal. High values mean lower potency in that assay, low ones higher potency in that assay.

One data set relates to MCF-7 cells. Nature of the data set: Cell viability assay (PrestoBlue), MCF-7. In kind it is cell-based, human. The settings on record: MCF-7, 72 h. As for the experimental part:
(§1) Cell viability assays were carried out to investigate the anti-proliferative effect of the AGCs. […] Auranofin was used for comparative purposes. […] Cells were incubated with the compounds for 72 hours and viability was assessed with Presto Blue. […] As mentioned before, linkers bring considerable advantages in terms of ADC stability.
(§2) Cell viability analysis for all compounds and AGCs described.
(§3) MCF7, MCF10A and BT-474 were obtained from the American Type Culture Collection (ATCC) (Manassas, Va.) and cultured in Dulbecco's modified Eagle's medium (DMEM) (Mediatech) supplemented with 10% FBS, 1% NEAA and 1% penicillin-streptomycin (MCF7 AND MCF1 OA) or DME HG/F12K, NEAA, 2 mM glutamine, 10% FBS/PS and incubated at 37° C. and 5% CO2 in a humidified incubator.
(§4) After 72 h, cell viability was determined by means of the colorimetric cell viability assay PrestoBlue (Invitrogen, Carlsbad, Calif.) according to the manufacturer's intructions. EC50 were fit using GraphPad Prism 7 to best match the experimental data.
(§5) Tables 3 and Table 4 show EC50 Values (μM) in MCF7, MCF10A and BT474 cell lines determined with [AuCl(PPh3)] (DMF), [Au(mba)(PPh3)]

In another data set the test system is BT-474 cells. Nature of the data set: Cell viability assay (PrestoBlue), BT-474. Particulars: BT-474, 72 h. It counts as cell-based, human. As for the experimental part: as §1, §2, §3, §4, §5
The next data set has as its system MCF-10A cells. Nature of the data set: Cell viability assay (PrestoBlue), MCF-10A. It counts as cell-based, human. The settings on record: MCF-10A non-cancerous breast cell line, 72 h. The protocol: as §1, §2, §3, §4, §5
For data set [1] the following is noted: DMSO solution at room temperature; cited from earlier work.
For data set [2] the following is noted: humans, rheumatoid arthritis medication; cited from earlier work.

Where “and” joins values, the source holds several entries; their conditions need not be identical. Equal entries are not always repeated. Some results are limits rather than exact numbers.

`[Cl][Au].c1ccc(P(c2ccccc2)c2ccccc2)cc1` [[AuCl(PPh3)], reference compound]: the EC50 was 3600 nM and 3570 nM with MCF-7 cells; 3.32 ± 0.1 µM with BT-474 cells; 18.9 ± 1.3 µM in the data set on MCF-10A cells.
Turning to `CC[P](CC)(CC)=[Au][S][C@@H]1O[C@H](COC(C)=O)[C@@H](OC(C)=O)[C@H](OC(C)=O)[C@H]1OC(C)=O` [AF, [(2R,3R,4S,5R,6S)-3,4,5-tris(acetyloxy)-6-{[(triethyl-λ5-phosphanylidene)aurio]sulfanyl}-oxan-2-yl]methyl acetate], in data set [1], the “time stable in solution” value was over 72 h. For the same compound, the “patients affected by most severe side effects (diarrhea and rashes)” value in data set [2] is 26-40%.
With [Au(mba)(PPh3)] [reference compound], the EC50 with MCF-7 cells is 2400 nM and 2360 nM; in the data set on BT-474 cells, 3.51 ± 0.16 µM; with MCF-10A cells it was 5.52 ± 0.36 µM.
